The results in this text go back to US20160130278A1 (TAISHO PHARMACEUTICAL CO., LTD, priority 2013, published 2016).

The structures appear in SMILES notation.

In the test the target is T1, human type 1 glycine transporter (GlyT1) (Homo sapiens, UniProt P48067).
T1 construct: T98G cells (glioma cells) expressing human type 1 glycine transporter (GlyT1) were used
T1 sequence (P48067 1-706): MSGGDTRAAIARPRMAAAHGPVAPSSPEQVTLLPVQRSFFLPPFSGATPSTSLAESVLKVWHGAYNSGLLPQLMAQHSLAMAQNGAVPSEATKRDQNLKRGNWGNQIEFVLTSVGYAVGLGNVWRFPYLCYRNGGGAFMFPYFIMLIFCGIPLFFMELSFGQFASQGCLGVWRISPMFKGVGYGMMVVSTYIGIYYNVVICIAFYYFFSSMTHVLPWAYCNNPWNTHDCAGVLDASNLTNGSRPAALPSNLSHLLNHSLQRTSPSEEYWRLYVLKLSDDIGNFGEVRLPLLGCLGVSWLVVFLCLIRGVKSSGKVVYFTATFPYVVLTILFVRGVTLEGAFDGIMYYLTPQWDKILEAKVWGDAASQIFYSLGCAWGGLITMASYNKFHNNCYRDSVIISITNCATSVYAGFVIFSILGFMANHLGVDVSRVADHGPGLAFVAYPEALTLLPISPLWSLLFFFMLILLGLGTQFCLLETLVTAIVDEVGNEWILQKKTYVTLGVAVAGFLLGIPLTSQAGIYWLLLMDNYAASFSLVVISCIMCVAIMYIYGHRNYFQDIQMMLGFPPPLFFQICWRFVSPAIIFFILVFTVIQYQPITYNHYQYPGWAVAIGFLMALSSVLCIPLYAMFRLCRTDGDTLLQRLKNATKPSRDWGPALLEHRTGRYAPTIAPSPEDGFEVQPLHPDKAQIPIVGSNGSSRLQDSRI
Kind of test: Glycine uptake inhibition experiment ([3H]glycine uptake). In kind it is cell-based. To be noted: GlyT1. The method in brief: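 T98G glioma cells expressing human GlyT1 were pretreated 10 min with compound in HEPES buffer pH 7.4 (0.2% BSA), then incubated with compound plus 250 nM final [3H]glycine for 15 min at room temperature. Intracellular radioactivity was counted after NaOH lysis; 10 μM ALX5407 defined non-specific uptake. IC50 came from 10^−9–10^−5 M curves.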

In the case of `CCn1cc(-c2cccc(C(NC(=O)c3ccc(Cl)cc3Cl)C3(O)CCC(F)(F)CC3)c2)cn1` (stereo not drawn) [Compound 191, 2,4-dichloro-N-{(4,4-difluoro-1-hydroxycyclohexyl)[3-(1-ethyl-1H-pyrazol-4-yl)phenyl]methyl}benzamide], the IC50 (in general, the point on the concentration scale where inhibition reaches its midpoint) was determined as 1300 nM. The result for `CCn1cc(-c2cccc(C(NC(=O)c3ccc(F)cc3C(F)(F)F)C3(O)CCC(F)(F)CC3)c2)cn1` (stereo not drawn) [Compound 192, N-{(4,4-difluoro-1-hydroxycyclohexyl)[3-(1-ethyl-1H-pyraozl-4-yl)phenyl]methyl}-4-fluoro-2-(trifluoromethyl)benzamide] reads 340 nM.

Compound `CCn1cc(-c2cccc(C(NC(=O)c3cc(C(F)(F)F)cnc3Cl)C3(O)CCC(F)(F)CC3)c2)cn1` (stereo not drawn) [Compound 202, 2-chloro-N-{(4,4-difluoro-1-hydroxycyclohexyl)[3-(1-ethyl-1H-pyrazol-4-yl)phenyl]methyl}-5-(trifluoromethyl)pyridine-3-carboxamide] showed an IC50 of 900 nM. As to `CCn1cc(-c2cccc(C(NC(=O)c3cc(Cl)ccc3C(F)(F)F)C3(O)CCC(F)(F)CC3)c2)cn1` (stereo not drawn) [Compound 203, 5-chloro-N-{(4,4-difluoro-1-hydroxycyclohexyl)[3-(1-ethyl-1H-pyrazol-4-yl)phenyl]methyl}-2-(trifluoromethyl)benzamide], half-maximal inhibition (IC50) required 730 nM.

Compound `CCn1cc(-c2cccc(C(NC(=O)c3ccccc3Cl)C3(O)CCC(F)(F)CC3)c2)cn1` (stereo not drawn) [Compound 205, 2-chloro-N-[(4,4-difluoro-1-hydroxycyclohexyl)[3-(1-ethyl-1H-pyrazol-4-yl)phenyl]methyl}benzamide] registered an IC50 of 1900 nM. Regarding `CCn1cc(-c2cccc(C(NC(=O)c3ncc(Cl)cc3C(F)(F)F)C3(O)CCC(F)(F)CC3)c2)cn1` (stereo not drawn) [Compound 206, 5-chloro-N-{(4,4-difluoro-1-hydroxycyclohexyl)[3-(1-ethyl-1H-pyrazol-4-yl)phenyl]methyl}-3-(trifluoromethyl)pyridine-2-carboxamide], inhibition was half-maximal at 8700 nM (IC50). In turn, `CCn1cc(-c2cccc(C(NC(=O)c3cccc(OC)c3Cl)C3(O)CCC(F)(F)CC3)c2)cn1` (stereo not drawn) [Compound 207, 2-chloro-N-{(4,4-difluoro-1-hydroxycyclohexyl)[3-(1-ethyl-1H-pyrazol-4-yl)phenyl]methyl}-3-methoxybenzamide] returned an IC50 of 8800 nM. Then `CCn1cc(-c2cccc(C(NC(=O)c3cccc(Cl)c3C(F)(F)F)C3(O)CCC(F)(F)CC3)c2)cn1` (stereo not drawn) [Compound 208, 3-chloro-N-{(4,4-difluoro-1-hydroxycyclohexyl)[3-(1-ethyl-1H-pyrazol-4-yl)phenyl]methyl}-2-(trifluoromethyl)benzamide], with 1300 nM; and `CCn1cc(-c2cccc(C(NC(=O)c3cccc(F)c3Cl)C3(O)CCC(F)(F)CC3)c2)cn1` (stereo not drawn) [Compound 209, 2-chloro-N-{(4,4-difluoro-1-hydroxycyclohexyl)[3-(1-ethyl-1H-pyrazol-4-yl)phenyl]methyl}-3-fluorobenzamide], with 1200 nM. Then `O=C(NC(c1cccc(Cl)c1)C1(O)CCCCC1)c1nccc(C(F)(F)F)c1Cl` (stereo not drawn) [Compound 212, 3-chloro-N-[(3-chlorophenyl)(1-hydroxycyclohexyl)methyl]-4-(trifluoromethyl)pyridine-2-carboxamide], with 84 nM; and `O=C(N[C@@H](c1cccc(Cl)c1)[C@]1(O)CC[C@@H](F)CC1)c1cc(C(F)(F)F)ncc1Cl` [Compound 227, 5-chloro-N-[(S)-(3-chlorophenyl)(cis-4-fluoro-1-hydroxycyclohexyl)methyl]-2-(trifluoromethyl)pyridine-4-carboxamide], with 510 nM. `O=C(NC(c1cccc(Cl)n1)C1(O)CCCC1)c1nccc(C(F)(F)F)c1Cl` (stereo not drawn) [Compound 383, 3-chloro-N-[(6-chloropyridin-2-yl)(1-hydroxycyclopentyl)methyl]-4-(trifluoromethyl)pyridine-2-carboxamide] came in with an IC50 of 21 nM.
